Measured values taken from patent US20230271941A1, “COMPOUNDS AND COMPOSITIONS FOR TREATING CONDITIONS ASSOCIATED WITH STING ACTIVITY” (IFM Due, Inc., priority 2020, published 2023).

The compounds below were run against T1, hSTING (Homo sapiens, UniProt Q86WV6, G230A/H232R/R293Q/R71H) (assay: STING reporter assay: THP1-Dual KO-IFNAR2 cells stimulated with 2′3′cGAMP, luciferase reporter activity). Conditions: 15 μM 2′3′cGAMP transfected with Lipofectamine 2000, 24 h, luciferase reporter (QUANTI-Luc).
T1 construct: host or cells: THP1-Dual KO-IFNAR2 cells
T1 sequence (Q86WV6 whole entry R71H/G230A/H232R/R293Q): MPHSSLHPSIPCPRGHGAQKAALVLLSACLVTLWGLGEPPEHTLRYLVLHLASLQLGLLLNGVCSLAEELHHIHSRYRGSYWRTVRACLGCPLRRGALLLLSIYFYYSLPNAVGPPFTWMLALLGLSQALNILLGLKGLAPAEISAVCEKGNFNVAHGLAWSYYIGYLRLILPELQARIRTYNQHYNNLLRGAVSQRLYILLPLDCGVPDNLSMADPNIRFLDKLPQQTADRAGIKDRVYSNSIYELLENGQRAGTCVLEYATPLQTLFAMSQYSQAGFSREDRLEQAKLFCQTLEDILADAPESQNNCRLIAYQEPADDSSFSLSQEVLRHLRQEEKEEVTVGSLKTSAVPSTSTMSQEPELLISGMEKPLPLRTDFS
Type: cell-based
Method: STING pathway activation by the compounds described herein was measured using THP1-Dual™ cells (KO-IFNAR2).
THP1-Dual™ KO-IFNAR2 Cells (obtained from invivogen) were maintained in RPMI, 10% FCS, 5 ml P/S, 2 mM L-glut, 10 mM Hepes, and 1 mM sodium pyruvate. Compounds were spotted in empty 384 well tissue culture plates (Greiner 781182) by Echo for a final concentration of 0.0017-100 μM. Cells were plated into the TC plates at 40 μL per well, 2×10E6 cells/mL. For activation with STING ligand, 2′3′cGAMP (MW 718.38, obtained from Invivogen), was prepared in Optimem media.
The following solutions were prepared for each 1×384 plate: • Solution A: 2 mL Optimem with one of the following stimuli: • 60 μL of 10 mM 2′3′cGAMP→150 μM stock • Solution B: 2 mL Optimem with 60 μL Lipofectamine 2000→Incubate 5 min at RT
2 mL of solution A and 2 ml Solution B was mixed and incubated for 20 min at room temperature (RT). 20 μL of transfection solution (A+B) was added on top of the plated cells, with a final 2′3′cGAMP concentration of 15 μM. The plates were then centrifuged immediately at 340 g for 1 minute, after which they were incubated at 37° C., 5% CO2, >98% humidity for 24 h. Luciferase reporter activity was then measured. EC50 values were calculated by using standard methods known in the art.
Luciferase reporter assay: 10 μL of supernatant from the assay was transferred to white 384-plate with flat bottom and squared wells. One pouch of QUANTI-Luc™ Plus was dissolved in 25 mL of water. 100 μL of QLC Stabilizer per 25 mL of QUANTI-Luc™Plus solution was added. 50 μL of QUANTI-Luc™ Plus/QLC solution per well was then added. Luminescence was measured on a Platereader (e.g., Spectramax I3X (Molecular Devices GF3637001)).
Luciferase reporter activity was then measured. EC50 values were calculated by using standard methods known in the art.
Compound `O=C(Nc1c[nH]c2ccccc12)c1cn(Cc2ccc(C(F)(F)F)cn2)cn1` [Compound 130, N-(1H-indol-3-yl)-1-((5-(trifluoromethyl)pyridin-2-yl)methyl)-1H-imidazole-4-carboxamide] has an EC50 of 1000 to 5000 nM.
For `O=C(Nc1c[nH]c2cc(F)c(F)cc12)c1cc(-c2ccc(Cl)cc2)on1` [Compound 167, 5-(4-chlorophenyl)-N-(5,6-difluoro-1H-indol-3-yl)isoxazole-3-carboxamide], the EC50 was 200 to 1000 nM.
With `O=C(Nc1c[nH]c2cc(F)c(F)cc12)c1cc(CC2CCN(CC(F)(F)F)CC2)no1` [Compound 155, N-(5,6-difluoro-1H-indol-3-yl)-3-((1-(2,2,2-trifluoroethyl)piperidin-4-yl)methyl)isoxazole-5-carboxamide] the EC50 was 40 to 200 nM.
With `O=C(Nc1c[nH]c2cc(F)c(F)cc12)c1cc(-c2ccccc2)[nH]n1` [Compound 175, N-(5,6-difluoro-1H-indol-3-yl)-5-phenyl-1H-pyrazole-3-carboxamide] the EC50 was 200 to 1000 nM.
`O=C(Nc1c[nH]c2cc(F)ccc12)c1cnn(Cc2ccc(C(F)(F)F)cc2)c1` [Compound 143, N-(6-fluoro-1H-indol-3-yl)-1-(4-(trifluoromethyl)benzyl)-1H-pyrazole-4-carboxamide] was tested, and the EC50 was 200 to 1000 nM.
`Cc1cc(-c2cc(C(=O)Nc3c[nH]c4cc(F)c(F)cc34)n[nH]2)ccc1Cl` [Compound 164, 5-(4-chloro-3-methylphenyl)-N-(5,6-difluoro-1H-indol-3-yl)-1H-pyrazole-3-carboxamide] was tested, and the EC50 was 200 to 1000 nM.
For `O=C(Nc1c[nH]c2ccc(Cl)cc12)c1cn(-c2cnc(NCC(F)(F)F)c(F)c2)nn1` [Compound 158, N-(5-chloro-1H-indol-3-yl)-1-(5-fluoro-6-((2,2,2-trifluoroethyl)amino)pyridin-3-yl)-1H-1,2,3-triazole-4-carboxamide], the EC50 was 200 to 1000 nM.
Work on `O=C(Nc1c[nH]c2cc(F)c(F)cc12)c1cnn(CCOc2cncc(C(F)(F)F)c2)c1` [Compound 161, N-(5,6-difluoro-1H-indol-3-yl)-1-(2-((5-(trifluoromethyl)pyridin-3-yl)oxy)ethyl)-1H-pyrazole-4-carboxamide] yielded an EC50 of 200 to 1000 nM.
In the case of `O=C(Nc1c[nH]c2cc(F)c(F)cc12)c1cc(-c2ccncc2)[nH]n1` [Compound 176, N-(5,6-difluoro-1H-indol-3-yl)-5-(pyridin-4-yl)-1H-pyrazole-3-carboxamide], the EC50 is reported as 5000 to 100000 nM.
Compound `O=C(Nc1c[nH]c2cc(F)c(F)cc12)c1cc(-c2ccc(F)cc2F)on1` [Compound 170, N-(5,6-difluoro-1H-indol-3-yl)-5-(2,4-difluorophenyl)isoxazole-3-carboxamide] has an EC50 of 200 to 1000 nM.
For `O=C(Nc1c[nH]c2cc(F)c(F)cc12)c1cn(-c2ccnc(COCC(F)(F)F)c2)nn1` [Compound 156, N-(5,6-difluoro-1H-indol-3-yl)-1-(2-((2,2,2-trifluoroethoxy)methyl)pyridin-4-yl)-1H-1,2,3-triazole-4-carboxamide], the EC50 was 1000 to 5000 nM.
`O=C(Nc1c[nH]c2ccccc12)c1cncn1Cc1ccc(C(F)(F)F)c(Cl)c1` [Compound 132, 1-(3-chloro-4-(trifluoromethyl)benzyl)-N-(1H-indol-3-yl)-1H-imidazole-5-carboxamide] showed an EC50 of 1000 to 5000 nM.
Compound `O=C(Nc1c[nH]c2cc(F)c(F)cc12)c1ccnn1CCOc1cccnc1` [Compound 127, N-(5,6-difluoro-1H-indol-3-yl)-1-(2-(pyridin-3-yloxy)ethyl)-1H-pyrazole-5-carboxamide] has an EC50 of 5000 to 100000 nM.
For `O=C(Nc1c[nH]c2ccc(F)cc12)c1cnn(Cc2ccc(C(F)(F)F)cc2)c1` [Compound 115, N-(5-fluoro-1H-indol-3-yl)-1-(4-(trifluoromethyl)benzyl)-1H-pyrazole-4-carboxamide], the EC50 was 200 to 1000 nM.
Compound `O=C(Nc1c[nH]c2cc(F)c(Cl)cc12)c1cc(Cc2ccc(C(F)(F)F)cc2)n(C(F)F)n1` [Compound 166, N-(5-chloro-6-fluoro-1H-indol-3-yl)-1-(difluoromethyl)-5-(4-(trifluoromethyl)benzyl)-1H-pyrazole-3-carboxamide] has an EC50 of 200 to 1000 nM.
`O=C(Nc1c[nH]c2cc(F)c(F)cc12)c1cn(-c2ccc(C(F)(F)F)cc2)nn1` [Compound 106, N-(5,6-difluoro-1H-indol-3-yl)-1-(4-(trifluoromethyl)phenyl)-1H-1,2,3-triazole-4-carboxamide] showed an EC50 of 200 to 1000 nM.
Compound `O=C(Nc1c[nH]c2cc(F)c(F)cc12)c1cnn(CCOc2cccnc2)c1` [Compound 124, N-(5,6-difluoro-1H-indol-3-yl)-1-(2-(pyridin-3-yloxy)ethyl)-1H-pyrazole-4-carboxamide] has an EC50 of 5000 to 100000 nM.
`O=C(Nc1c[nH]c2cc(F)c(F)cc12)c1csc(-c2cccc(C(F)(F)F)c2)n1` [Compound 101, N-(5,6-difluoro-1H-indol-3-yl)-2-(3-(trifluoromethyl)phenyl)thiazole-4-carboxamide] was tested, and the EC50 was 200 to 1000 nM.
`O=C(Nc1c[nH]c2cc(F)c(F)cc12)c1ncn(-c2ccccc2)n1` [Compound 110, N-(5,6-difluoro-1H-indol-3-yl)-1-phenyl-1H-1,2,4-triazole-3-carboxamide] was tested, and the EC50 was 40 to 200 nM.
`O=C(Nc1c[nH]c2cc(F)ccc12)c1cn(Cc2ccc(C(F)(F)F)cc2)cn1` [Compound 104, N-(6-fluoro-1H-indol-3-yl)-1-(4-(trifluoromethyl)benzyl)-1H-imidazole-4-carboxamide] was tested, and the EC50 was 200 to 1000 nM.
In the case of `Cn1nc(C(=O)Nc2c[nH]c3cc(F)c(Cl)cc23)cc1Cc1ccc(C(F)(F)F)cc1` [Compound 162, N-(5-chloro-6-fluoro-1H-indol-3-yl)-1-methyl-5-(4-(trifluoromethyl)benzyl)-1H-pyrazole-3-carboxamide], the EC50 is reported as 40 to 200 nM.
Work on `O=C(Nc1c[nH]c2cc(F)ccc12)c1ccn(Cc2ccc(C(F)(F)F)cc2)n1` [Compound 103, N-(6-fluoro-1H-indol-3-yl)-1-(4-(trifluoromethyl)benzyl)-1H-pyrazole-3-carboxamide] yielded an EC50 of 200 to 1000 nM.
For `O=C(Nc1c[nH]c2cc(F)c(F)cc12)c1cc(-c2cccnc2)[nH]n1` [Compound 119, N-(5,6-difluoro-1H-indol-3-yl)-5-(pyridin-3-yl)-1H-pyrazole-3-carboxamide], the EC50 was 5000 to 100000 nM.
For `O=C(Nc1c[nH]c2cc(F)c(F)cc12)c1cc(-c2ccc(Cl)cc2)n[nH]1` [Compound 108, 3-(4-chlorophenyl)-N-(5,6-difluoro-1H-indol-3-yl)-1H-pyrazole-5-carboxamide], the EC50 was 200 to 1000 nM.
`O=C(Nc1c[nH]c2cc(F)c(F)cc12)c1cc(Cc2ccc(C(F)(F)F)cc2)[nH]n1` [Compound 145, N-(5,6-difluoro-1H-indol-3-yl)-5-(4-(trifluoromethyl)benzyl)-1H-pyrazole-3-carboxamide] showed an EC50 of 200 to 1000 nM.
For `Cn1nc(C(=O)Nc2c[nH]c3cc(F)c(F)cc23)cc1-c1ccccc1` [Compound 172, N-(5,6-difluoro-1H-indol-3-yl)-1-methyl-5-phenyl-1H-pyrazole-3-carboxamide], the EC50 was 200 to 1000 nM.
With `O=C(Nc1c[nH]c2ccc(-c3ccc(CO)c(F)c3)cc12)c1cn(Cc2ccc(C(F)(F)F)cc2)cn1` [Compound 137, N-(5-(3-fluoro-4-(hydroxymethyl)phenyl)-1H-indol-3-yl)-1-(4-(trifluoromethyl)benzyl)-1H-imidazole-4-carboxamide] the EC50 was 1000 to 5000 nM.
Work on `Cc1cc(Cn2cc(C(=O)Nc3c[nH]c4cc(F)c(F)cc34)cn2)cnc1OCC(F)(F)F` [Compound 163, N-(5,6-difluoro-1H-indol-3-yl)-1-((5-methyl-6-(2,2,2-trifluoroethoxy)pyridin-3-yl)methyl)-1H-pyrazole-4-carboxamide] yielded an EC50 of 40 to 200 nM.
Compound `O=C(Nc1c[nH]c2ccc(Oc3ccccc3)cc12)c1cnn(Cc2ccc(C(F)(F)F)cc2)c1` [Compound 154, N-(5-phenoxy-1H-indol-3-yl)-1-(4-(trifluoromethyl)benzyl)-1H-pyrazole-4-carboxamide] has an EC50 of 40 to 200 nM.
Work on `O=C(Nc1c[nH]c2cc(F)c(F)cc12)c1nn(Cc2ccc(C(F)(F)F)cc2)c(=O)[nH]1` [Compound 142, N-(5,6-difluoro-1H-indol-3-yl)-5-oxo-1-(4-(trifluoromethyl)benzyl)-4,5-dihydro-1H-1,2,4-triazole-3-carboxamide] yielded an EC50 of 1000 to 5000 nM.
Compound `O=C(Nc1c[nH]c2cc(F)c(F)cc12)c1cc(-c2cccc(Cl)c2)[nH]n1` [Compound 174, 5-(3-chlorophenyl)-N-(5,6-difluoro-1H-indol-3-yl)-1H-pyrazole-3-carboxamide] has an EC50 of 200 to 1000 nM.
In the case of `Cc1cc(-n2cc(C(=O)Nc3c[nH]c4cc(F)c(F)cc34)nn2)cnc1OCC(F)(F)F` [Compound 165, N-(5,6-difluoro-1H-indol-3-yl)-1-(5-methyl-6-(2,2,2-trifluoroethoxy)pyridin-3-yl)-1H-1,2,3-triazole-4-carboxamide], the EC50 is reported as 200 to 1000 nM.
`O=C(Nc1c[nH]c2cc(F)c(F)cc12)c1csc(-c2ccc(OC(F)(F)F)cc2)n1` [Compound 177, N-(5,6-difluoro-1H-indol-3-yl)-2-(4-(trifluoromethoxy)phenyl)thiazole-4-carboxamide] gave an EC50 of 1000 to 5000 nM.
